60 compounds from the METLIN SMRT retention time set (Domingo-Almenara et al. 2019) can be followed below.

A short description of this series: gradient 5% acetonitrile 3 min, to 50% in 2 min, to 85% in 15 min, held 3 min, 100 µL/min. To be noted: column: Zorbax Extend-C18 2.1 x 50 mm; eluents: water / acetonitrile, 0.1% formic acid. Summed up:
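Using water and acetonitrile that each contained 0.1% formic acid, mixtures of ~100 pure standards were separated at 100 μL/min on a Zorbax Extend-C18 column (2.1 × 50 mm, 1.8 μm). The HPLC fed a quadrupole time-of-flight mass spectrometer working in positive and negative ionization mode, with dead and dwell volumes of 40 μL and 900 μL. Data were acquired over 3 months. Retention time was read from computationally picked adduct peaks after manual inspection of each.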
Consider `CCCn1c(CCNC(=O)c2ccccc2F)nc2cccnc21`, for which the RP-LC retention time was found to be 644 s. Then `CCOC(=O)c1oc2ccccc2c1NC(=O)c1ccccc1S(C)(=O)=O`, with 800 s; and `Cc1ccc(NC(=O)C2(C)Oc3cccnc3NC2=O)c(C)c1` (stereo not given), with 727 s; and `CC(NC(=O)Cn1c(=O)c2cccn2c2ccccc21)c1ccc2c(c1)OCCO2` (stereo not given), with 794 s. Then `O=C(NC1CCN(c2cc(-c3ccc(Cl)cc3)[nH]n2)C1)c1cccc(Br)c1` (stereo not given), with 870 s.

In turn, `Cc1cc(-c2nnc3sc(COc4ccc(Br)cc4)nn23)n[nH]1` displayed an RP-LC retention time of 786 s.

`CCN(CC)CC(C)(C)C(=O)/C=C/c1ccc(C)cc1` yielded an RP-LC retention time of 684 s.

`CC(C)NCc1ccc(-c2ccccc2Cl)o1` had an RP-LC retention time of 673 s.

As for `Cc1ccc(-c2nc(C)c(C(=O)N3CCCC3)s2)cc1`, the RP-LC retention time was determined as 906 s. In the case of `CCC(=O)N1CCc2cc(N3CC(C(=O)N4CCN(C(C)C)CC4)CC3=O)ccc21` (stereo not given) it was 580 s; in that of `Cn1nc(-c2nc(-c3ccccc3F)no2)c2c1CCN(C(=O)NC1CCCC1)C2`, 800 s.

The compound `Cc1ccc2oc(N3CCN(C(=O)Cc4ccccc4)CC3)nc2n1` yielded an RP-LC retention time of 620 s. In the case of `COc1cccc(C(O)CN2CCN(c3cccc(C)c3C)CC2)c1` (stereo not given) it was 614 s; in that of `CS(=O)(=O)N1CCC(OC2CCN(C(=O)Nc3ccc(Cl)cc3F)CC2)CC1`, 783 s. The compound `CC(C)Cc1cc(-c2nnc3sc(-c4ccccc4F)nn23)n[nH]1` gave an RP-LC retention time of 889 s. In the case of `Cc1ccc(N2CC(c3nc(-c4ccc5c(c4)OCO5)no3)CC2=O)cc1Cl` (stereo not given), the RP-LC retention time worked out at 1050 s.

Turning to `O=C(c1ccc2c(c1)OCO2)N1CCc2cc(-c3csc(C4CC4)n3)ccc21`, the RP-LC retention time turned out to be 1090 s. In the case of `CC(=O)N1CCN(Cc2nc(-c3ccc(N4CCCC(C)C4)nc3)no2)CC1` (stereo not given) it was 669 s; in that of `C=CCN1CC(c2nc3ccccc3n2CC(O)COc2cc(C)ccc2C)CC1=O` (stereo not given), 664 s. Then `O=C(NCc1cccs1)c1coc(NC(=O)c2ccco2)n1`, with 632 s; and `Cc1noc(C)c1CN1CCC(n2c(C)cnc2-c2ccncc2)C1` (stereo not given), with 525 s. Take `Cc1ccc(C)c(CN2CCC(F)(c3nc(-c4cnccn4)no3)CC2)c1`: the RP-LC retention time turned out to be 650 s.

`Cc1cc2c(=O)n(CC(=O)Nc3ccc4c(c3)OCCO4)c3cccnc3n2n1` showed an RP-LC retention time of 693 s. Then `Cc1cccc(S(=O)(=O)N2CCC(c3noc(-c4cccc(F)c4)n3)CC2)c1`, with 1110 s; and `O=C1COc2cc(S(=O)(=O)N3CCCC3C(=O)Nc3ccccc3)c(Cl)cc2N1` (stereo not given), with 768 s; and `COc1ccc(-c2nnc3n2CCN(Cc2cn(C)nc2C)C3)cc1`, with 552 s. Then `CCn1cnc2ccc(-c3noc(Cc4ccc(OC)cc4)n3)cc21`, with 728 s; and `Cc1noc2ncn(CC(=O)Nc3ccccc3Br)c(=O)c12`, with 761 s. The compound `Cc1ccc(NC(=O)CN2C(=O)CCc3cc(S(=O)(=O)N4CCCCC4C)ccc32)cc1C` (stereo not given) displayed an RP-LC retention time of 720 s. In the case of `CCn1cc(S(=O)(=O)N2CCC(c3noc(-c4ccncc4)n3)C2)cn1` (stereo not given) it was 707 s.

In turn, `Cc1oc(C2CCN(S(=O)(=O)c3cc(F)ccc3F)CC2)nc1C(=O)N(C)C` showed an RP-LC retention time of 816 s. In the case of `Cc1nn(-c2nc3ccccc3[nH]2)c2c1C(=O)CC(c1ccc(F)cc1)C2` (stereo not given) it was 1000 s; in that of `Cc1ccc(N2N=C(C(=O)N3CCN(CC(C)C)CC3)S(=O)(=O)c3cccnc32)cc1`, 674 s. In the case of `CC(C(=O)NCCN1CCCCC1)n1c2ccccc2c2cnn(C)c(=O)c21` (stereo not given) it was 628 s.

`Cc1noc(C)c1CNC(=O)c1ccc(F)cc1Cl` came in with an RP-LC retention time of 731 s. In the case of `CC(C)CN1C(=O)CCc2cc(NS(=O)(=O)c3cccs3)ccc21` it was 819 s; in that of `CC(C)c1ccc(NC(=O)Cn2nc(N3CCSCC3)c3ccccc3c2=O)cc1`, 1070 s; in that of `Cc1cc(C)n(CCC(=O)N[C@@H]2CN(S(C)(=O)=O)C[C@H]2CN(C)C)n1`, 564 s.

Consider `COc1ccc(S(=O)(=O)NCc2ccc3c(c2)CCN3C(C)=O)cc1Cl`, for which the RP-LC retention time came to 779 s.

Turning to `O=C(Nc1c(F)cc(F)cc1F)c1sc2ccccc2c1Cl`, the RP-LC retention time came out at 1030 s.

`O=S(=O)(c1ccc2nncn2c1)N(Cc1ccccc1Cl)c1ccccc1` showed an RP-LC retention time of 885 s.

For `CCOC(=O)c1cc(S(=O)(=O)N2CCCC2C(=O)NC(C)C)cn1C` (stereo not given), the RP-LC retention time came to 746 s. In the case of `CCn1c(=O)n(CC(=O)NCCN2CCCC2)c(=O)c2cnc(-c3ccc(Cl)cc3)nc21` it was 706 s. In the case of `Cc1ccsc1C(=O)Nc1ccc(-c2nc(Cn3cccn3)c(C)o2)cc1` it was 884 s; in that of `CCN1CCN(c2cc(C(=O)O)c3cc(NS(=O)(=O)c4cccc(C)c4)ccc3n2)CC1`, 596 s. In the case of `CCN(CC)CCNC(=O)c1c(-c2ccccc2)c(-c2ccccc2)nn(C)c1=O` it was 646 s. Compound `CC[C@@H](CO)NC(=O)[C@@H]1C=C2c3cccc4[nH]cc(c34)C[C@H]2N(C)C1` gave an RP-LC retention time of 616 s.

On to `COc1ccccc1CNC(=O)c1cn(C)nc1S(=O)(=O)N1CCC(C)CC1`, for which the RP-LC retention time was 951 s. For `O=S(=O)(c1cccnc1)N1CCCCC1c1nncn1CC1CC1` (stereo not given), the RP-LC retention time was found to be 662 s. The compound `Cc1ccc(-c2nocc2CCC(=O)NCc2ccccc2)cc1` registered an RP-LC retention time of 910 s. `O=C(COc1ccc2ccccc2c1)NCC1CCN(c2ncccn2)CC1` showed an RP-LC retention time of 762 s. In the case of `COc1ccc(NC(=O)N2CCN(c3cc(-c4ccc(OC)c(OC)c4)ncn3)CC2)cc1` it was 620 s; in that of `Cc1nnc(C2CCCN(C(=O)c3cc(-c4ccc5c(c4)OCO5)n[nH]3)C2)s1` (stereo not given), 654 s; in that of `COc1cc(Nc2nc3c(s2)CCCC3c2ccc(F)cc2)ccc1-n1cnc(C)c1` (stereo not given), 1010 s. Then `Cc1sc(C)c(S(=O)(=O)NCC(C)c2ccccc2)c1-c1cc(C(F)(F)F)on1` (stereo not given), with 1250 s. Then `CC(C)NC(=O)C1CCCN(c2nc3ncn(CC(=O)N4CCc5ccccc5C4)c(=O)c3s2)C1` (stereo not given), with 723 s. For the compound `Cc1cc2n(n1)CCC(=O)N2CCCC(=O)NCc1ccc(C)o1`, the RP-LC retention time turned out to be 644 s. Then `CCc1cc(C(=O)Nc2ccc(OC)cc2)nc2cc(-c3ccccn3)nn12`, with 1000 s. Then `CCOC(=O)N1CCN(C(=O)Nc2cccc(Cl)c2)CC1`, with 732 s; and `COc1cccc(-n2ccn3cc(-c4ccc5c(c4)OCO5)nc3c2=O)c1`, with 775 s.
